This note sets out measurements from patent US9132200B2, “Oligomer-calcium channel blocker conjugates” (NEKTAR THERAPEUTICS, priority 2007, dated 2015).

Where two headings read alike, the source gives them in different places.

In the assay the target is calcium channel (Rattus norvegicus, UniProt P22002). The assay can be described thus: Calcium channel binding assay similar to Example 3, 3[H]-diltiazem as competing radioligand. The method, then:
[…] […] The reactions were carried out in 50 mM TRIS-HCl (pH 7.7) at 25° C. for 60 minutes. The reaction was terminated by rapid vacuum filtration onto glass fiber filters. […] Molecular Pharmacology 25, 235-241 (1984)).

Where [1] appears, read: Binding Assay No. 2 (Table 2), 3[H]-diltiazem radioligand.

Chain of calcium channel (P22002 whole entry): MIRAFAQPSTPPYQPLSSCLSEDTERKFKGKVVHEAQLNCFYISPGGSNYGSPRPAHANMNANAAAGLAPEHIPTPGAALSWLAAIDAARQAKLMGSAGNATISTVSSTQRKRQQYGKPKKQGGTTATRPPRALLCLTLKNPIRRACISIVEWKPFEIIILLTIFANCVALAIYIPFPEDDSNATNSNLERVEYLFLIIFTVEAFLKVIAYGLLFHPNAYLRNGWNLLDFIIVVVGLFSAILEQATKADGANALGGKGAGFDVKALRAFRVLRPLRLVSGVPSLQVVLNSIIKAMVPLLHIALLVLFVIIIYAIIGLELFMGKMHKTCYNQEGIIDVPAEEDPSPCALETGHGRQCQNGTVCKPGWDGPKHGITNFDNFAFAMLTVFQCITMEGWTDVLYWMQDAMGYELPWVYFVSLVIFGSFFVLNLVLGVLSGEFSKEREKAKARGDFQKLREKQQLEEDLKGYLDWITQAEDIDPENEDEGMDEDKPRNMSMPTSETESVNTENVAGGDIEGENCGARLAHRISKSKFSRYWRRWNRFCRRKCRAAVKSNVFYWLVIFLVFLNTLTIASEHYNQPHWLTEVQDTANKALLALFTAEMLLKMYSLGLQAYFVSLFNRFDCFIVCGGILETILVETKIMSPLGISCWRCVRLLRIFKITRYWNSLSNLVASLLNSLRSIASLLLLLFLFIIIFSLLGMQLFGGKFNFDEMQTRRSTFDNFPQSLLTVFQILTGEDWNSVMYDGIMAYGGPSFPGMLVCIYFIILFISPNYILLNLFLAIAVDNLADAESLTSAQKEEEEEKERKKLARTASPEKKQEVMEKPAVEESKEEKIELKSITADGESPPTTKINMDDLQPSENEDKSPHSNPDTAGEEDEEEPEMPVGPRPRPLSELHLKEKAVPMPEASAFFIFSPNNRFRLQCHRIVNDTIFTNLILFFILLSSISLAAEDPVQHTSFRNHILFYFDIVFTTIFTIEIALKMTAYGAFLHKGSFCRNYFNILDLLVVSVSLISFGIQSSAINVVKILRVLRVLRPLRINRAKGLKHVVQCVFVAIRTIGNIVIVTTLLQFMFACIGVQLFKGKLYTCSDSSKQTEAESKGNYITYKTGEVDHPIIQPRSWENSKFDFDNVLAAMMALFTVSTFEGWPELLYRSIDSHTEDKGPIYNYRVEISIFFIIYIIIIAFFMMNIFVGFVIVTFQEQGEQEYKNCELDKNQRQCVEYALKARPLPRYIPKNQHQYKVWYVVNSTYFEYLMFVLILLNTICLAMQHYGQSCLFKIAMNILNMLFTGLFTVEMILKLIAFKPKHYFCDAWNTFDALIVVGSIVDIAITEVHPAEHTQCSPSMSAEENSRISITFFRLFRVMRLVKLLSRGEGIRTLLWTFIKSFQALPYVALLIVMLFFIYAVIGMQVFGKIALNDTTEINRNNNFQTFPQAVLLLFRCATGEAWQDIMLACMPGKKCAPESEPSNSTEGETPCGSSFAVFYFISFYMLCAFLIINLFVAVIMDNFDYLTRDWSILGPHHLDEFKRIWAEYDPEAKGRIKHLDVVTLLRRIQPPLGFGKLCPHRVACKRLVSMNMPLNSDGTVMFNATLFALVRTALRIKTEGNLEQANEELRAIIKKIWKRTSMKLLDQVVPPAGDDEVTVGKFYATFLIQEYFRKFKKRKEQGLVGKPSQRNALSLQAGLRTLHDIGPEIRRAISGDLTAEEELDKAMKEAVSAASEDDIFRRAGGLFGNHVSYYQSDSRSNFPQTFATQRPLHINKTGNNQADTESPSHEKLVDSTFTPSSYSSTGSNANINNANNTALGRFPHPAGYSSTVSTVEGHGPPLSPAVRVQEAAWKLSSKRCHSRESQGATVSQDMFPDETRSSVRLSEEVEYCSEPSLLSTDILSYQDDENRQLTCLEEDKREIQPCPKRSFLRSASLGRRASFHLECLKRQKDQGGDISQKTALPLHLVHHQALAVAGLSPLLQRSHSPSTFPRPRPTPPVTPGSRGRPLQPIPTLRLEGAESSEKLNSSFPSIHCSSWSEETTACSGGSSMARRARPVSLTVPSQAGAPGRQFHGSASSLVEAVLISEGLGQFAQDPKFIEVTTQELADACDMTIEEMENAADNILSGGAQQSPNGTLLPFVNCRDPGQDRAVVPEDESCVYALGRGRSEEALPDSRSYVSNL

What is called IC50 is the point on the concentration scale where inhibition reaches its midpoint. As for `COCCOCCOCCOCCOCCOCCOCCOc1ccc(CCN(C)CCCC(C#N)(c2ccc(OC)c(OC)c2)C(C)C)cc1OC` (stereo not shown) [mPEG7-O-Verapamil, O-mPEG7-verapamil], the IC50 under setting [1] was 1.13 µM.
As to `COCCOCCOCCOc1ccc(CCN(C)CCCC(C#N)(c2ccc(OC)c(OC)c2)C(C)C)cc1OC` (stereo not shown) [mPEG3-O-Verapamil, O-mPEG3-verapamil], the half-inhibitory concentration (IC50) under setting [1] was found to be 0.541 µM.
Consider `COCCOCCOCCOCCOCCOCCOc1ccc(CCN(C)CCCC(C#N)(c2ccc(OC)c(OC)c2)C(C)C)cc1OC` (stereo not shown) [mPEG6-O-Verapamil, O-mPEG6-verapamil], for which the IC50 amounted to 0.349 µM.
In the case of `COCCOCCOCCOCCOCCOc1ccc(CCN(C)CCCC(C#N)(c2ccc(OC)c(OC)c2)C(C)C)cc1OC` (stereo not shown) [mPEG5-O-Verapamil, O-mPEG5-verapamil], under setting [1], the 50% inhibitory concentration (IC50) is 0.852 µM.
